Series [1] can be described thus: Human Hepatocyte Stability (Test D). The class given is in vitro ADME. The settings on record: human, cryopreserved pooled human hepatocytes (LiverPool 10-Donor), geometric mean if run multiple times. The essentials: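 Intrinsic clearance (μL/min/10^6 cells), derived as kV/N from the log-linear loss of parent compound. Compound incubated at 37 °C with cryopreserved pooled human hepatocytes, 0.25×10^6 cells in 0.25 mL L-15; dosing solution 100 μM in acetonitrile. Singlicate incubations, cassette LC-MS; repeats reported as geometric mean.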

Series [2] is described as follows: Human Plasma Protein Binding (Test B). The class given is in vitro ADME. The settings on record: fraction unbound (fu). The procedure, abridged: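 Values given as % free (fu) in human plasma, using the method of Wernevik et al. (2020). For compounds tested more than once, the arithmetic mean is given.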
The nature of series [3]: Solubility (Test F). The settings on record: arithmetic mean if run multiple times. The class given is physicochemical. As for the experimental part: The assay was conducted according to the Solubility Assay described in pages 164-167 of Wernevik, J. et al., “A Fully Integrated Assay Panel for Early Drug Metabolism and Pharmacokinetics Profiling”, Assay and Drug Development Technologies, 2020, 18(4), 157-179. Data are reported in Table 36 as solubility ([…]. Where the assay was run multiple times for the same compound, the arithmetic mean is reported.

In series [4] the target is T1, human RXFP1 (Homo sapiens, UniProt Q9HBX9).
T1 sequence (Q9HBX9 1-757): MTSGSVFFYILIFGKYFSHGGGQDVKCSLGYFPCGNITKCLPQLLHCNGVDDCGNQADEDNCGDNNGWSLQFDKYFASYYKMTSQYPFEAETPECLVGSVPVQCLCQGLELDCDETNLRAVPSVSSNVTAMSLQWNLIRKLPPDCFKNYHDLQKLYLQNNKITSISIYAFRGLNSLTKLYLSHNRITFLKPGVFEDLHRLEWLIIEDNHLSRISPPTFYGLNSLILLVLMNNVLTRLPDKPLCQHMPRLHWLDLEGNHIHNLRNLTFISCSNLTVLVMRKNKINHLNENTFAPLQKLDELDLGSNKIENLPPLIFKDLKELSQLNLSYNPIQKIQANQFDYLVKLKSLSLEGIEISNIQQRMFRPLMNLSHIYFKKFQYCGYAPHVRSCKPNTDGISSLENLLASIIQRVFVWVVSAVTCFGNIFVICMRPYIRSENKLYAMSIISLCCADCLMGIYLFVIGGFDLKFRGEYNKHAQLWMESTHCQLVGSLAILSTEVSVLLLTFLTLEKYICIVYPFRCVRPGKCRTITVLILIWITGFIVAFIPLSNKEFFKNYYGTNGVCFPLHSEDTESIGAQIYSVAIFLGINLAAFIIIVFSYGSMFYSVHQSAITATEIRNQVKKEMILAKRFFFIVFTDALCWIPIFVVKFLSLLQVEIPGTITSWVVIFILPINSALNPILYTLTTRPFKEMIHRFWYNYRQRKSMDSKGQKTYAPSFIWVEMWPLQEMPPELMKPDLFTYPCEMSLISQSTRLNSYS
Nature of the series: Human RXFP1 Phospho-ERK Assay (Test H). The class given is cell-based. Also noted: expressed in transfected cells. The settings on record: HEK293s cells stably transfected with human RXFP1; phospho-ERK (Thr202/Tyr204) HTRF, 5 min stimulation; read-out: Test H phospo-ERK assay EC50. The text has this:
Cells: HEK293s cells stably transfected with human RXFP1 in pIRESneo3 was employed.
In general terms: TR-FRET usually uses a lanthanide donor and a delayed reading to cut background.

Molecules are shown by their SMILES. Values after ≈ are worked out from the molar mass of the structure shown. Where only a bound is given, the exact number is not on record here.

In series [1], `COc1cc(F)c(O[C@H]2CC[C@@](C)(C(=O)O)CC2)cc1C(=O)N[C@@H]1[C@H]2CC[C@H](C2)[C@@H]1C(=O)Nc1cccc(S(=O)(=O)C(F)(F)F)c1` [Example 208, (1S,4s)-4-(2-Fluoro-4-methoxy-5-(((1S,2R,3S,4R)-3-((3-((trifluoromethyl)sulfonyl)phenyl)carbamoyl)bicyclo[2.2.1]heptan-2-yl)carbamoyl)phenoxy)-1-methylcyclohexane-1-carboxylic acid] displayed a hepatocyte CLint at 1 µM of 15 µL/min/1e6 cells. For the same compound, in series [2], the “Test B Human Plasma Protein Binding (% free)” value turned out to be 1 % free. The solubility in series [3] was 130 µM (≈ 87.2 µg/mL). Moreover, the EC50 in series [4] came to 1.2 nM.
In turn, `COc1cc(F)c(O[C@H]2CC[C@@H](C(=O)O)CC2)cc1C(=O)N[C@@H]1[C@H]2CC[C@H](C2)[C@@H]1C(=O)Nc1ccc(F)c(S(F)(F)(F)(F)F)c1` [Example 433] displayed a hepatocyte CLint at 1 µM in series [1] of 14 µL/min/1e6 cells. Besides, the “Test B Human Plasma Protein Binding (% free)” value in series [2] was 0.38 % free. In series [3], this compound returned a solubility of 240 µM (≈ 160 µg/mL).
The compound `COc1cc(F)c(-c2ccc(C(=O)O)cc2)cc1C(=O)N[C@H]1[C@@H](C(=O)Nc2cccc(S(=O)(=O)C(F)(F)F)c2)[C@@H]2C=C[C@H]1C2` (single isomer, unassigned) [Example 552] gave a hepatocyte CLint at 1 µM in series [1] of 12 µL/min/1e6 cells. For the same compound, the “Test B Human Plasma Protein Binding (% free)” value in series [2] was determined as 0.060 % free. Also, in series [3], the solubility is > 1000 µM. The EC50 in series [4] amounted to 81 nM.
For `COc1cc(F)c(O[C@H]2CC[C@@](C)(C(=O)O)CC2)cc1C(=O)N[C@@H]1[C@H]2CC[C@H](C2)[C@@H]1C(=O)Nc1ccc(F)c(S(F)(F)(F)(F)F)c1` [Example 353] the same measures were 21 µL/min/1e6 cells, <0.23 % free, 45 µM (≈ 30.7 µg/mL) and 0.36 nM.

The term hepatocyte CLint denotes the capacity of the preparation to metabolise the compound, expressed as a volume cleared per time. A low value points to slow turnover. For orientation: solubility means the concentration that dissolves in the medium under given conditions. A lower solubility goes with little dissolved substance. A word on the EC50: it is the concentration at which the effect is half-maximal.

The values above are taken from patent US11667602B2, “Compounds and their use” (AstraZeneca AB, priority 2020, dated 2023).
